Data as given in PMC9782601, “A Fucosylated Lactose-Presenting Tetravalent Glycocluster Acting as a Mutual Ligand of Pseudomonas aeruginosa Lectins A (PA-IL) and B (PA-IIL)—Synthesis and Interaction Studies” (International Journal of Molecular Sciences, 2022).

Experiments:
Assay type in all cases: binding
PA-IIL (LecB) = biological target: T1, PA-IIL (LecB) (Pseudomonas aeruginosa, UniProt Q9HYN5); experiment: isothermal titration calorimetry, single-site model; details: 0.1 M Tris/HCl, 500 μM CaCl2, pH 7.5, 25 °C
T1 construct: freeze-dried; tetramer, one sugar site with two calcium ions per monomer
T1 sequence (Q9HYN5 entry or part of it): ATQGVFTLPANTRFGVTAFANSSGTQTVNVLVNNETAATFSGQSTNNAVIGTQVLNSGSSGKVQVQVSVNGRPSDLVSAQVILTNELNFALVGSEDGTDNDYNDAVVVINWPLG
From the text: isothermal titration calorimetry, single-site model on PA-IIL (LecB)

PA-IL (LecA) [1] = biological target: T2, PA-IL (LecA) (Pseudomonas aeruginosa, UniProt Q05097); experiment: as above; details: 0.1 M Tris/HCl, 500 μM CaCl2, pH 7.5, 25 °C
T2 construct: freeze-dried; tetramer, one sugar site with one calcium ion per monomer
T2 sequence (Q05097 2-122): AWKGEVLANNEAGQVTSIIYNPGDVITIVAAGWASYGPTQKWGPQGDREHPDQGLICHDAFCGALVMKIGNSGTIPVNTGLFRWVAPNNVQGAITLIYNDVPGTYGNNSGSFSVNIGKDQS
From the text: isothermal titration calorimetry, single-site model on PA-IL (LecA)

PA-IL (LecA) [2] = biological target: T2, PA-IL (LecA); experiment: 1H STD NMR, reference ligand; details: 4 mM ligand, 40 μM lectin, D2O, 20 mM Tris-d11, 150 mM NaCl, 5 mM CaCl2, pH 7.5, 283 K

In the case of `C[C@@H]1O[C@@H](O[C@@H]2[C@@H](O)[C@H](OCc3cn(CCn4cc(COCC(COCc5cn(CCn6cc(CO[C@@H]7O[C@H](CO)[C@@H](O[C@@H]8O[C@H](CO)[C@H](O)[C@H](O)[C@H]8O)[C@H](O[C@@H]8O[C@@H](C)[C@@H](O)[C@@H](O)[C@@H]8O)[C@H]7O)nn6)nn5)(COCc5cn(CCn6cc(CO[C@@H]7O[C@H](CO)[C@@H](O[C@@H]8O[C@H](CO)[C@H](O)[C@H](O)[C@H]8O)[C@H](O[C@@H]8O[C@@H](C)[C@@H](O)[C@@H](O)[C@@H]8O)[C@H]7O)nn6)nn5)COCc5cn(CCn6cc(CO[C@@H]7O[C@H](CO)[C@@H](O[C@@H]8O[C@H](CO)[C@H](O)[C@H](O)[C@H]8O)[C@H](O[C@@H]8O[C@@H](C)[C@@H](O)[C@@H](O)[C@@H]8O)[C@H]7O)nn6)nn5)nn4)nn3)O[C@H](CO)[C@H]2O[C@@H]2O[C@H](CO)[C@H](O)[C@H](O)[C@H]2O)[C@@H](O)[C@H](O)[C@@H]1O` [compound 8, Compound 8], the “Ka [10^4 M^-1]” value (PA-IIL (LecB); n = 1.12 pH, buffer, temperature, tetravalent ligand, n = 1.1) is reported as 257 ± 66.9 10^4 M^-1 and the “Ka [10^4 M^-1]” value (PA-IL (LecA) [1]; n = 0.51 pH, buffer, temperature, tetravalent ligand, n = 0.89) is reported as 496 ± 104 10^4 M^-1.

In the case of `CO[C@H]1O[C@H](CO)[C@H](O)[C@H](O)[C@H]1O` [Meα-D-Gal], the STD signal (PA-IL (LecA) [2]) is reported as “The STD signals (highlighted by red ellipsoids) confirm the binding of Meα-D-Gal”.

In the case of `C#CCO[C@@H]1O[C@H](CO)[C@@H](O[C@@H]2O[C@H](CO)[C@H](O)[C@H](O)[C@H]2O)[C@H](O[C@@H]2O[C@@H](C)[C@@H](O)[C@@H](O)[C@@H]2O)[C@H]1O` [compound 6, Compound 6], the “Ka [10^4 M^-1]” value (PA-IIL (LecB); n = 1.12) is reported as 344 ± 124 10^4 M^-1 and the “Ka [10^4 M^-1]” value (PA-IL (LecA) [1]; n = 0.51) is reported as 59 ± 28.4 10^4 M^-1.
